Columns and labels:
[1] = biological target: T1, MMP-2 (Homo sapiens, UniProt P08253); assay: Assay for inhibitory activity against MMP-2; format: biochemical
T1 construct: purchased Yagai (Yamagata pref., Japan)
T1 sequence (P08253 110-660): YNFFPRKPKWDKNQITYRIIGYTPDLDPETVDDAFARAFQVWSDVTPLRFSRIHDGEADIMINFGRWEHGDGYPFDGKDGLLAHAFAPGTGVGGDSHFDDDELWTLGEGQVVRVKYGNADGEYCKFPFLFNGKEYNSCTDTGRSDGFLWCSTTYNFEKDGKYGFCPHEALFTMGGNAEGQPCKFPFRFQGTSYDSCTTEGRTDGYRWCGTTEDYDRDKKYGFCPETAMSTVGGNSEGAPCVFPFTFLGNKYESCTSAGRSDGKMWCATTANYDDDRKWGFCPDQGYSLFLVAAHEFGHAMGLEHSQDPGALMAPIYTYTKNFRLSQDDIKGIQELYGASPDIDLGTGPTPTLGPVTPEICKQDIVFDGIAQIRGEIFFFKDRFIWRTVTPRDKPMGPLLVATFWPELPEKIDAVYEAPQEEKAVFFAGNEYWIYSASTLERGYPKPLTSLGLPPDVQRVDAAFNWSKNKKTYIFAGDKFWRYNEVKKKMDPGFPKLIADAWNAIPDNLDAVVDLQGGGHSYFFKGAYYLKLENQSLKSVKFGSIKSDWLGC
Description: (§1) Assay for Inhibitory Activities of MMP-9 and MMP-2
(§2) The enzymatic activity was analyzed on the method described by Knight, C. G., et al. (C. Graham Knight., Frances Willenbrock and Gillian Murphy: A novel coumarin-labelled peptide for sensitive continuous assays of the matrix metalloproteinases. FEBS Lett., 296 (1992) 263-266).
MMP-2 was purchased from Yagai (Yamagata pref., Japan).
(§3) MOCAc-Pro-Leu-Gly-Leu-A2pr(Dnp)-Ala-Arg-NH2 as a substrate was purchased from Petide Institute(Osaka pref., Japan). This substrate was dissolved in DMSO at a concentration of 1 mM.
(§4) Reaction buffer consists of 50 mM Tris-HCl buffer (pH 7.5) containing 10 mM CaCl2, 0.3 M NaCl, 0.005% Brij35 and 0.01% NaN3.
Assay Method of Inhibitory Activity Against MMP-2:
(§5) 1.0 μl of a tested compound in DMSO is added to 48.0 μl of a reaction buffer containing 0.05 μl of an enzyme solution. After standing for 60 minutes at room temperature, the reaction was started by adding 1.0 μl of a substrate solution. After incubation for 60 minutes at room temperature, 100 μl of 3% (v/v) AcOH for reaction stopping and measured a fluorescence with excitation and emission at 320 nm and 405 nm, respectively (Spectrophotofluorometer; Fluoroscan Ascent (Labsystem)).
(§6) The measurement of the inhibitory activities (IC50) was carried out in a following four methods;
(§7) A) Reaction with substrate, enzyme and inhibitor
(§8) B) Reaction with substrate and inhibitor, without enzyme
(§9) C) Reaction with substrate and enzyme, without inhibitor
(§10) D) Reaction with substrate only
(§11) IC50 values were calculated by using a following formula and each fluorescence values of above four methods (A to D).
(§12) % inhibition={1−(A−B)/(C−D)}×100
(§13) IC50 means the concentration required to inhibit 50% of the enzyme activity.

[2] = biological target: T2, MMP-9 (Homo sapiens, UniProt P14780); assay: Assay for inhibitory activity against MMP-9; format: biochemical
T2 construct: made in house; host or cells: HT1080 human fibrosarcoma cells; endogenous protein secreted after TPA treatment and purified from conditioned medium
T2 sequence (P14780 107-707 limits assumed): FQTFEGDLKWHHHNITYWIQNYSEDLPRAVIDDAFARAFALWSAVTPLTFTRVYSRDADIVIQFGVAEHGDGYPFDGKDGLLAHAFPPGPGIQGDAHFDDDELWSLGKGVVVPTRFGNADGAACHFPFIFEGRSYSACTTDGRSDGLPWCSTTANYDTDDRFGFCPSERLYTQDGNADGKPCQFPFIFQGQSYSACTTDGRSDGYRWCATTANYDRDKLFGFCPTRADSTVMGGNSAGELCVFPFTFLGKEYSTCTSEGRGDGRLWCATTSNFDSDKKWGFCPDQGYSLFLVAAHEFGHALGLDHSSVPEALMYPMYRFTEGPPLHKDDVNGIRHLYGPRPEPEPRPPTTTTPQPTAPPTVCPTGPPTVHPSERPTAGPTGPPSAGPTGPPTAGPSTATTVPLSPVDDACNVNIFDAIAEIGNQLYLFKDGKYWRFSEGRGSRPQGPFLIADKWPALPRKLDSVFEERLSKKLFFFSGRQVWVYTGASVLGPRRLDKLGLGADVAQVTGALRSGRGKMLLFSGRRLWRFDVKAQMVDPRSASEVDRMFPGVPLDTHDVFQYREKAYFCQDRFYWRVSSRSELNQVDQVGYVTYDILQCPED
Description: as §1, §2
MMP-9 was purified by using a combination of procedures described in previous reports as follows. Yasunori Okada, Yukio Gonoji, Katsumi Naka, Katsuro Tomita, Isao Nakanishi, Kazushi Iwata and Taro Hayakawa: Matrix metalloproteinase 9 (92-kDa gelatinase/type IV collagenase) from HT1080 human fibrosarcoma cells. Purification and activation of the precursor and enzymic properties. J. Biol. Chem., 267 (1992) 21712-21719. Yasunori Okada, Tatsuhisa Morodomi, Jan J, Enghild, Ko Suzuki, Atsushi Yasui, Isao Nakanishi, Guy Salvesen and Hideaki Nagase: Matrix metalloproteinase 2 from human rheumatoid synovial fibroblasts. Purification and activation of the precursor and enzymic properties. Eur. J. Biochem. 194 (1990) 721-730. Robin V Ward, Rosalind M Hembry, John J Reynolds and Gillian Murphy: The purification of tissue inhibitor of metalloproteinase-2 from its 72 kDa progelatinase complex. Biochem. J. 278 (1991) 179-187.
Briefly, human fibrosarcoma ATCC HT1080 cell line was cultured to confluent in Dulbecco's Modified Medium (DMEM) containing 10% fetal-calf serum at 37° C. for 48 hours. Subsequently, the medium of confluent culture was changed to serum-free DMEM medium. To obtain MMP-9, Phorbol-12-myristate-13-acetate (TPA) must be added to this serum-free DMEM medium at a concentration of 50 ng/ml. The TPA treated medium was centrifuged at 3000 rpm for 15 min and the supernatant was concentrated to 450 ml by a Toyo-Roshi UP-20 apparatus with an ultrafiltration membrane. Then, proMMP-9 in this concentrated solution was purified by using columns of Gelatin-Sepharose and Concanavalin A-Sepharose. The pool containing proMMP-9 was dialyzed, concentrated (Toyo-Roshi UP-20) and applied to columns of Sephacryl S-200 and Green A matrix for the separation from TIMPs. The obtained proMMP-9 fraction was activated by TPCK-Trypsin (final conc. […] reaction mix.) for the assay.
as §3, §4
Assay Method of Inhibitory Activity Against MMP-9:
as §5, with “0.08” for “0.05”
as §6, §7, §8, §9, §10, §11, §12, §13

[3] = system: E30 monoclonal antibody-induced glomerulonephritis in Slc-Wistar rats; assay: Urinary protein excretion in E30 monoclonal antibody-induced glomerulonephritis rats; format: in vivo, rat; conditions: urinary protein excretion on day 2 after E30 injection, compound-treated vs vehicle-treated group, oral, 100 mg once a day, first dose 2 hours before E30
Description: Five to eight weeks old male Slc-Wistar rats were used in the experiment.
In order to induce glomerulonephritis, E30 of 20 to 500 μg, preferably 50 to 200 μg, is intravenously injected to rats of five to eight weeks old. Test compounds of 0.1 to 500 mg, preferably 1 to 200 mg, are suspended with 3 to 10%, preferably 4 to 6%, gum arabic solution and the like, and are orally given 1 to 5 hours, preferably 1.5 to 3 hours, prior to E30 injection. Constant amount of test compounds are then consecutively given 1 to 3 times a day. Evaluation of test compounds are determined by the amount of urinary protein excretion 2 days after E30 injection when proteinuria reaches to the maximum level.
Determination of the amount of urinary protein excretion is performed by the collection of 24-hour urine samples with stainless metabolic cages followed by the measurement of the concentration of urinary protein. Blood samples obtained at the follow-up period are processed for the determination of blood urea nitrogen and plasma creatinine, which indicate renal function. As a marker of damaged renal tubules, urinary amounts of N-acetyl-D-glycosaminidase excretion is measured. Furthermore, to study the inhibitory effects of compounds on mesangial proliferation following E30 injection, the number of PCNA (proliferating cell nuclear antigen) positive cells per single glomerulus is counted. Morphological changes are observed with light and electron microscopy.
5-week-old male Slc-Wistar rats were reared under the conditions of room temperature of 25° C., 40-60% humidity and 12 hour cycles of light and darkness and fed on solid chow (CA-1, Clea Japan) and tap water ad libitum. After one week's preliminary rearing, each rat was housed in a stainless metabolic cage for acclimation for one week, and was used for experiment at 7 weeks of old (body weight: 150-180 g). E30 monoclonal antibody (J.J.N., vol. 36, p106, 1994) was diluted with saline at 100 μg/0.4 ml and was administered from tail vein at the volume of 0.4 ml/body. Compound (2) was suspended with 5% gum arabic solution and was given at the dose of 100 mg 2 hours before E30 injection. Subsequently, compound (2) of 100 mg was orally administered once a day from the next day. The rats were housed in stainless metabolic cages just after the administration of test compound, and then 24-hour urine samples were collected. After measuring the volume, the urine was centrifuged at 3000 rpm for 10 min at room temperature. […] Urinary protein was determined by pyrogallole red method (Micro TP-test Wako, Wako Zyunyaku). The amount of urinary protein excretion on day 2 in compound-treated group was compared with that in vehicle-treated one, and inhibitory ratio of urinary protein excretion was calculated. […]

| Compound | IC50 [1] | melting point | IC50 [2] | Inhibitory rate (%) of urinary protein excretion [3] |
| --- | --- | --- | --- | --- |
| Cc1ccc(C#Cc2ccc(S(=O)(=O)N[C@H](Cc3ccccc3)C(=O)O)s2)s1 [Compound 87] | 3.69 nM | 158 to 160 °C | 10 nM | – |
| Cc1ccc(-n2nnc(-c3ccc(S(=O)(=O)N[C@H](Cc4ccccc4)C(=O)O)s3)n2)cc1 [Compound 95] | 10.7 nM | 166 to 169 °C | 19 nM | 21% |
| Cc1ccc(-n2nnc(-c3ccc(S(=O)(=O)N[C@@H](C(=O)O)C(C)C)s3)n2)cc1 [Compound 96] | 1.5 nM | 178 to 179 °C | 36.2 nM | – |
| CC(C)[C@@H](NS(=O)(=O)c1ccc(-c2nnn(-c3ccc(F)cc3)n2)s1)C(=O)O [Compound 97] | 15.6 nM | 184 to 186 °C | 136 nM | – |
| CC(C)[C@@H](NS(=O)(=O)c1ccc(-c2ncc(-c3ccccc3)o2)s1)C(=O)O [Compound 98] | 95.3 nM | 220 to 223 °C | 787 nM | – |
| Cc1ccc(-c2ccc(-c3ccc(S(=O)(=O)N[C@@H](C(=O)O)C(C)C)cc3)s2)cc1 [Compound 103] | 6.12 nM | – | 27.8 nM | – |
| CC(C)[C@@H](NS(=O)(=O)c1ccc(-n2nnc(-c3ccc(C(F)(F)F)cc3)n2)cc1)C(=O)O [Compound 104] | 2.02 nM | 198 to 200 °C | 18.7 nM | 27% |
| O=C(O)[C@@H](Cc1ccccc1)NS(=O)(=O)c1ccc(-n2nnc(-c3ccc(F)cc3)n2)cc1 [Compound 105] | 41.4 nM | 190 to 192 °C | 304 nM | – |
| CC(C)[C@@H](NS(=O)(=O)c1ccc(-n2nnc(-c3ccc(F)cc3)n2)cc1)C(=O)O [Compound 106] | 28.3 nM | 204 to 205 °C | 104 nM | – |
| CCc1ccc(-c2nnn(-c3ccc(S(=O)(=O)N[C@@H](C(=O)O)C(C)C)cc3)n2)cc1 [Compound 107] | 3.51 nM | 186 to 187 °C | 8.25 nM | – |
| CCc1ccc(-c2nnn(-c3ccc(S(=O)(=O)N[C@@H](Cc4ccccc4)C(=O)O)cc3)n2)cc1 [Compound 110] | 25.7 nM | 188 to 190 °C | 94.7 nM | – |
| O=C(O)[C@@H](Cc1c[nH]c2ccccc12)NS(=O)(=O)c1ccc(-n2nnc(-c3ccc(F)cc3)n2)cc1 [Compound 111] | 10.7 nM | 113 to 115 °C | 104 nM | – |
| CCc1ccc(-c2nnn(-c3ccc(S(=O)(=O)N[C@H](C(=O)O)C(C)C)cc3)n2)cc1 [Compound 112] | 28.4 nM | 179 to 181 °C | 126 nM | – |

More lines, main results first:

| IC50 [1] | melting point | IC50 [2] | Compound | Inhibitory rate (%) of urinary protein excretion [3] |
| --- | --- | --- | --- | --- |
| 5.7 nM | 153 to 154 °C | 71.8 nM | CCc1ccc(-c2nnn(-c3ccc(S(=O)(=O)N[C@H](CC(C)C)C(=O)O)cc3)n2)cc1 [Compound 113] | – |
| 181 nM | 191 to 192 °C | 4610 nM | O=C(O)[C@@H](Cc1ccccc1)NS(=O)(=O)c1ccc(-n2nnc(-c3ccccc3)n2)cc1 [Compound 115] | – |
| 2.62 nM | 155 to 157 °C | 31 nM | CCc1ccc(-c2nnn(-c3ccc(S(=O)(=O)N[C@H](C)C(=O)O)cc3)n2)cc1 [Compound 117] | – |
| 2.16 nM | 187 to 189 °C | 61.6 nM | CCOc1ccc(-c2nnn(-c3ccc(S(=O)(=O)N[C@@H](C(=O)O)C(C)C)cc3)n2)cc1 [Compound 118] | – |
| 1.69 nM | 185 to 188 °C | 45.5 nM | CC(C)[C@@H](NS(=O)(=O)c1ccc(-n2nnc(-c3ccc(N(C)C)cc3)n2)cc1)C(=O)O [Compound 119] | – |
| 0.919 nM | 194 to 196 °C | 5.82 nM | CSc1ccc(-c2nnn(-c3ccc(S(=O)(=O)N[C@@H](C(=O)O)C(C)C)cc3)n2)cc1 [Compound 120] | – |
| 0.561 nM | 191 to 193 °C | 148 nM | CCCCc1ccc(-c2nnn(-c3ccc(S(=O)(=O)N[C@@H](C(=O)O)C(C)C)cc3)n2)cc1 [Compound 121] | – |
